# Test results published in the NIST ThermoML archive (doi:10.1021/je1013476).
# ± gives the expanded uncertainty stated by the source.
# Settings: 101.33 kPa, Liquid; for viscosity: Capillary tube (Ostwald / Ubbelohde) method; for mass density: Vibrating tube method
viscosity (288.15 K) [mPa·s],mass density (288.15 K) [kg/m3],viscosity (293.15 K) [mPa·s],mass density (293.15 K) [kg/m3],viscosity (298.15 K) [mPa·s],mass density (298.15 K) [kg/m3],viscosity (303.15 K) [mPa·s],mass density (303.15 K) [kg/m3],viscosity (313.15 K) [mPa·s],mass density (313.15 K) [kg/m3],SMILES
0.864 ± 0.009,980.39 ± 0.07,0.803 ± 0.008,974.83 ± 0.07,0.757 ± 0.008,969.15 ± 0.08,0.7 ± 0.007,963.39 ± 0.08,0.616 ± 0.006,952.1 ± 0.08,CCOC(=O)OCC [diethyl carbonate]
1.313 ± 0.013,793.65 ± 0.12,1.216 ± 0.012,789.34 ± 0.12,1.132 ± 0.011,785.07 ± 0.12,1.01 ± 0.01,780.72 ± 0.12,0.824 ± 0.008,771.97 ± 0.13,CCO [ethanol]
11.07 ± 0.1,828.63 ± 0.12,9.161 ± 0.085,825.2 ± 0.12,7.688 ± 0.072,821.74 ± 0.12,6.404 ± 0.06,818.23 ± 0.12,4.62 ± 0.044,811.22 ± 0.12,CCCCCCCCO [octan-1-ol]
4.682 ± 0.045,818.32 ± 0.13,4.025 ± 0.039,814.63 ± 0.13,3.497 ± 0.034,810.96 ± 0.13,3.022 ± 0.029,807.26 ± 0.13,2.312 ± 0.023,799.78 ± 0.14,CCCCCO [pentan-1-ol]
2.507 ± 0.024,807.55 ± 0.12,2.202 ± 0.021,803.52 ± 0.13,1.973 ± 0.019,799.45 ± 0.13,1.733 ± 0.017,795.47 ± 0.13,1.381 ± 0.014,787.28 ± 0.13,CCCO [propan-1-ol]
